Patent US8273771B2, “Ischemic disorder or disease inhibitors” (Pronas Pharma AB, priority 2007, dated 2012)

Experiments:
[1] = test system: rats with induced SAH; experiment: Neurological scoring in rat subarachnoid hemorrhage model; format: in vivo; conditions: established scoring system, SAH+vehicle score 1, sham score 0
Excerpt: Subarachnoid hemorrhage was induced by a model originally devised by Svendgaard et al and carefully described by Prunell et al (2003). Male Sprague-Dawley rats (350-400 g) were anaesthetized using 5% halothane (Halocarbon Laboratories, River Edge, N.J.) in N2O/O2 (30:70). The rat was intubated and artificially ventilated with inhalation of 0.5-1.5% halothane in N2O/O2 (70:30) during the surgical procedure. The depth of anaesthesia was carefully monitored and the respiration checked by regularly withdrawing arterial blood samples for blood gas analysis (Radiometer, Copenhagen, Denmark). An electric temperature probe was inserted into the rectum of the rat to record the temperature, which was maintained at 37° C. An arterial catheter to measure blood pressure was placed in the tail artery and a catheter to monitor intracranial pressure (ICP) was placed in the subarachnoid space under the subocciptal membrane. At either side of the skull, 3 mm from the midline and 4 mm anteriorly from the bregma, holes were drilled through the skull bone down to dura mater (without perforation) allowing the placement of two laser-Doppler flow probes to measure cortical CBF. […]
During the period, the rat was monitored regularly, and if showing severe distress the animal was prematurely killed. […]

[2] = test system: MCA from rats with induced SAH; experiment: Myograph contractile response to Ang II (via AT1) in cerebral arteries of treated SAH rats; format: in vivo, rat; conditions: in presence of PD123319, compared to SAH rats, no significant difference to sham
Method: The brains were quickly removed and chilled in ice-cold bicarbonate buffer solution (see composition below). Under a dissection microscope, the middle cerebral artery (MCA), the basilar artery (BA) and circle of Willis were carefully dissected free from the brain and cleared of connective tissue. The MCA and BA were immediately mounted in myographs for in vitro pharmacology or snap frozen at -80° C. and examined by real-time PCR. […] Measurements were recorded on a computer by use of a PowerLab unit (ADInstruments). […] The contractile capacity was determined by exposing the vessels to an isotonic solution containing 63.5 mM of K+, obtained by partial change of NaCl for KCl in the above buffer. […] Data are expressed as mean±standard error of the mean (s.e.m.), and n refers to the number of rats. […] In vitro Pharmacology Contractile responses in each segment are expressed as percentage of the 63.5 mM K+ induced contraction. […]

[3] = test system: AT2 receptor mRNA; experiment: Real-time PCR of receptor mRNA in cerebral arteries after SAH; format: in vivo, rat; conditions: MCA, BA and circle of Willis grouped

| Compound | neurological score [1] | Ang II induced contractile response [2] | expression of AT2 receptor mRNA, difference between sham, SAH and treated SAH [3] |
| --- | --- | --- | --- |
| Cn1cc(C2=C(c3cn(CCCN)c4ccccc34)C(=O)NC2=O)c2ccccc21 [RO-31-7549] | 0 | – | – |
| Oc1cc(-c2nc(-c3ccccc3)[nH]c2-c2ccncc2)ccc1Cl [SB386023-b] | 0 | significantly attenuated | no difference |
